What was measured:
Type in all cases: physicochemical
[1] = Solubility of compounds in toluene
Experimental: The solubility of the compounds in the toluene were determined as follows: • 1. 1000 mg of toluene solution was placed in the transparent glass sample bottle. • 2. A certain mass of the compound was added into the toluene, and oscillated until completely dissolved. • 3. After the compound was completely dissolved, a certain mass of the compound was further added into the toluene, and oscillated. • 4. The above steps were repeated until the compound wasn't dissolved any more. • 5. The total mass of the compound added was recorded and the solubility was obtained by calculation.

[2] = Absorption spectrum, emission spectrum and extinction coefficient in toluene solution; details: for Molar extinction coefficient of the toluene solution: maximum absorption peak
Experimental: The extinction coefficients of the compounds and their absorption and emission spectrums in the solution were determined as follows: • 1. The compound with a certain amount of substance concentration in the toluene was prepared in a volumetric flask. • 2. The absorption spectrum of the solution was measured by using an ultraviolet-visible spectrophotometer (Puxi T9s) to obtain the absorption peak wavelength. • 3. The absorbance of the maximum absorption peak divided by the amount of substance concentration is the molar extinction coefficient of the compound. • 4. The emission spectrum of the solution was measured by using a fluorescent spectroscope (Hitachi, F-4700 FL Spectrophotometer) to obtain the emission peak wavelength.

[3] = Absorption and emission spectrum in spin-coated film; details: spin-coated film
Experimental: The absorption and emission spectrums of the compounds in the film were determined as follows: • 1. The compound with a certain concentration in the toluene was prepared. • 2. The prepared toluene solution was dropped onto a clean glass substrate. • 3. Spin-coating, and then heating at the 80° C. for 1 min. • 4. The absorption spectrum of the film was measured by using an ultraviolet-visible spectrophotometer (Puxi T9s) to obtain the absorption peak wavelength. • 5. The emission spectrum of the film was measured by using a fluorescent spectroscope (Hitachi, F-4700 FL Spectrophotometer) to obtain the emission peak wavelength.

[4] = UV stability of compounds in toluene (absorbance decay to 80%); details: 1×10^−5 mol/L in toluene, UV LEDs 365 nm & 255 nm, time to 80% absorbance, normalized to comparative compound 2 as 100%
Experimental: The compound was dissolved in the toluene with a concentration of 1×10^−5 mol/L. 3 mL solution was added to the cuvette with a lid and the lid was screwed on tightly, then the cuvette was placed in the ultraviolet-visible spectrophotometer to test the absorption spectrum, the absorbance of the maximum absorption peak was recorded as the initial value. The cuvette was placed at a distance of 12 cm from the UV LEDs (365 nm & 255 nm), irradiated for a period and tested its absorption spectrum, then continued to be irradiated after the test, and repeated until the absorbance decayed to 80% of its initial value, the time was recorded as t80.

[5] = Blue light stability of the film (luminance decay); details: about 800 nm evaporated film, blue LED 460 nm, 3000 cd/m^2, versus comparative compound 1
Experimental: A film about 800 nm was evaporated, encapsulated with a glass cover plate, then placed at 2.5 cm above the blue LED (460 nm, 3000 cd/m^2) to test the luminance value with a luminance meter (Fstar, CS-2000A). The luminance value of the first test was recorded as the initial value, and the luminance was tested by irradiating for a period of time to obtain the luminance decay curve, see FIG. 34.

Structure (SMILES) | Solubilities(/100 g, toluene) [1] | Absorption peak of the toluene solution [2] | Emission peak of the toluene solution [2] | Molar extinction coefficient of the toluene solution [2] | Absorption peak of the film [3] | Emission peak of the film [3] | Times t80 [4] | stability of the film under blue-light illumination (luminance decay) [5]
CCc1cccc(CC)c1N(c1cc(C(C)(C)C)cc(C(C)(C)C)c1)c1cc(N(c2cc(C(C)(C)C)cc(C(C)(C)C)c2)c2c(CC)cccc2CC)c2ccc3c(N(c4cc(C(C)(C)C)cc(C(C)(C)C)c4)c4c(CC)cccc4CC)cc(N(c4cc(C(C)(C)C)cc(C(C)(C)C)c4)c4c(CC)cccc4CC)c4ccc1c2c43 [compound 8] | 30.1 g/100 g toluene | 484 nm | 501 nm | 5.3 × 10^4 L · mo 1^−1 | 482 nm | 499 nm | 261% | obviously improved UV stability
CCc1cccc(CC)c1N(c1ccc(C(C)(C)C)cc1)c1cc(N(c2ccc(C(C)(C)C)cc2)c2c(CC)cccc2CC)c2ccc3c(N(c4ccc(C(C)(C)C)cc4)c4c(CC)cccc4CC)cc(N(c4ccc(C(C)(C)C)cc4)c4c(CC)cccc4CC)c4ccc1c2c43 [compound 9] | 25.9 g/100 g toluene | 482 nm | 500 nm | 5.3 × 10^4 L · mo 1^−1 | 482 nm | 499 nm | 279% | 
